A short description of data set [1]: Cytotoxicity against human A-431 cells harboring wild type EGFR assessed as reduction in cell viability measured after 72 hrs by MTT assay. It is filed as toxicity, cell-based. Background: Tetrazolium dyes change colour on reduction, which living cells bring about.
For the next data set, the system named is HCC827. Nature of the data set: Antiproliferative activity against human HCC827 cells harboring EGFR exon del 19 mutant assessed as reduction in cell viability measured after 72 hrs by MTT assay. As to conditions: HCC827, 72 h. The class given is functional, cell-based.
The nature of data set [2]: Cytotoxicity against human A549 cells harboring wild type EGFR assessed as reduction in cell viability measured after 72 hrs by MTT assay. The class given is toxicity, cell-based.
A further data set deals with NCI-H1975. Nature of the data set: Antiproliferative activity against human NCI-H1975 cells harboring EGFR L858R/T790M mutant assessed as reduction in cell viability measured after 72 hrs by MTT assay. It is filed as functional, cell-based. As to conditions: NCI-H1975, 72 h.

What is called IC50 is the midpoint of a concentration-inhibition curve.

For the compound `C=CC(=O)Nc1cccc(Nc2nc(Nc3ccc(N4CCC(N5CCOCC5)CC4)cc3)nc3ccc(Cl)cc23)c1`, the IC50 at 72 h in data set [1] and in data set [2] was > 10000 nM throughout. Also, the IC50 in the data set with HCC827 was determined as 5720 nM; in the data set with NCI-H1975, 7650 nM.

With `C=CC(=O)Nc1cccc(Nc2nc(Nc3ccc(N4CCC(N5CCOCC5)CC4)cc3)nc3ccc(F)cc23)c1`, the IC50 at 72 h is 7590 nM in data set [1] and 5900 nM in data set [2]. Besides, the IC50 in the data set on HCC827 turned out to be 2300 nM; in the data set with NCI-H1975, 1600 nM.

As to `C=CC(=O)Nc1cccc(Nc2nc(Nc3ccc(C4CCN(C)CC4)cc3)nc3ccc(Cl)cc23)c1`, the IC50 at 72 h in data set [1] and in data set [2] was > 10000 nM in each case. Moreover, the 50% inhibitory concentration (IC50) with HCC827 came to 2700 nM; in the data set with NCI-H1975 it was 3410 nM.

For `C=CC(=O)Nc1cccc(Nc2nc(Nc3ccc(C4CCN(C)CC4)cc3)nc3ccc(F)cc23)c1`, the IC50 at 72 h in data set [1] is > 10000 nM; in data set [2], 5860 nM. Besides, the IC50 in the data set with HCC827 was 1850 nM; with NCI-H1975, 1090 nM.

As to `C=CC(=O)Nc1cccc(Nc2nc(Nc3ccc(N4CCN(C)CC4)cc3OC)nc3ccc(Cl)cc23)c1`, the IC50 at 72 h was found to be 2420 nM in data set [1] and 3520 nM in data set [2]. Besides, the IC50 with HCC827 amounted to 120 nM; in the data set on NCI-H1975, 321 nM.

Regarding `C=CC(=O)Nc1cccc(Nc2nc(Nc3ccc(N4CCN(C)CC4)cc3)nc3ccc(Br)cc23)c1`, the IC50 at 72 h in data set [1] is 5420 nM; in data set [2], 8710 nM. For the same compound, the concentration for half-maximal inhibition (IC50) in the data set with HCC827 was found to be 1900 nM; with NCI-H1975 it was 2630 nM.

For `C/C=C/C(=O)Nc1cccc(Nc2nc(Nc3ccc(N4CCN(C)CC4)cc3)nc3ccc(Cl)cc23)c1`, the IC50 at 72 h came to 4530 nM in data set [1] and 3650 nM in data set [2]. Further, the half-inhibitory concentration (IC50) in the data set with HCC827 amounted to 221 nM; in the data set with NCI-H1975 it was 231 nM.

Regarding `C=CC(=O)Nc1cccc(Nc2nc(Nc3ccc(N4CCN(C)CC4)cc3)nc3cccc(F)c23)c1`, the IC50 at 72 h in data set [1] was 1840 nM; in data set [2], 2310 nM. Further, the half-maximal inhibitory concentration (IC50) in the data set on HCC827 stood at 784 nM; in the data set with NCI-H1975, 1000 nM.

On to `C=CC(=O)Nc1ccccc1Nc1nc(Nc2ccc(N3CCN(C)CC3)cc2)nc2ccc(Cl)cc12`, for which the IC50 at 72 h in data set [1] and in data set [2] was > 10000 nM each time. Also, the IC50 came out at 1020 nM with HCC827 and 1320 nM in the data set on NCI-H1975.

For `C=CC(=O)Nc1cccc(Nc2nc(Nc3ccc(N(C)CCN(C)C)cc3)nc3ccc(F)cc23)c1`, the IC50 at 72 h in data set [1] came out at 3150 nM; in data set [2], 2570 nM. In addition, the IC50 in the data set with HCC827 is 850 nM; in the data set with NCI-H1975 it was 1790 nM.

As to `CN1CCN(c2ccc(Nc3nc(Nc4cccc(NC(=O)/C=C/c5ccccc5)c4)c4cc(Cl)ccc4n3)cc2)CC1`, the figures for the IC50 at 72 h in data set [1] and in data set [2] were 3220 nM and > 10000 nM, respectively. The IC50 in the data set on HCC827 was 1010 nM; with NCI-H1975, 2310 nM.

In the case of `C=CC(=O)Nc1cccc(Nc2nc(Nc3ccc(N4CCC(N(C)C)CC4)cc3OC)nc3ccc(F)cc23)c1`, the IC50 at 72 h in data set [1] and in data set [2] was > 10000 nM in each case. For the same compound, the half-maximal inhibitory concentration (IC50) turned out to be 1080 nM in the data set with HCC827 and 2430 nM with NCI-H1975.

With `C=CC(=O)Nc1cccc(Nc2nc(Nc3ccc(N4CCC(N(C)C)CC4)cc3OC)nc3ccc(Cl)cc23)c1`, the IC50 at 72 h in data set [1] was 5800 nM; in data set [2], 3590 nM. Moreover, the IC50 with HCC827 came to 159 nM; with NCI-H1975 it was 561 nM.

As to `C=CC(=O)Nc1cccc(Nc2nc(Nc3ccc(N4CCC(N5CCOCC5)CC4)cc3OC)nc3ccc(Cl)cc23)c1`, the IC50 at 72 h in data set [1] and in data set [2] was > 10000 nM throughout. Moreover, the results for the IC50 in the data set on HCC827 and in the data set on NCI-H1975 were 4590 nM and 5240 nM, respectively.

`C=CC(=O)Nc1cccc(Nc2nc(Nc3ccc(N4CCC(N5CCN(C)CC5)CC4)cc3OC)nc3ccc(Cl)cc23)c1`: the figures for the IC50 at 72 h in data set [1] and in data set [2] were 6600 nM and > 10000 nM, respectively. For the same compound, the IC50 is 1680 nM with HCC827 and 1360 nM in the data set on NCI-H1975.

Turning to `C=CC(=O)Nc1cccc(Nc2nc(Nc3ccc(N4CCC(N5CCN(C)CC5)CC4)cc3OC)nc3ccc(F)cc23)c1`, the figures for the IC50 at 72 h in data set [1] and in data set [2] were > 10000 nM and 8950 nM, respectively. Also, the IC50 in the data set on HCC827 came out at 1060 nM; with NCI-H1975, 1020 nM.

Take `C=CC(=O)Nc1cccc(Nc2nc(Nc3ccc(N4CCN(C)CC4)cc3OC)nc3ccc(F)cc23)c1`: the concentration for half-maximal inhibition (IC50) at 72 h in data set [1] was 3250 nM; in data set [2] it was 1520 nM. Moreover, the IC50 with HCC827 came to 98 nM; in the data set with NCI-H1975, 234 nM.

Take `C=CC(=O)Nc1cccc(Nc2nc(Nc3ccc(N4CCOCC4)cc3)nc3ccc(F)cc23)c1`: the IC50 at 72 h in data set [1] is > 10000 nM; in data set [2] it was 8520 nM. Besides, the IC50 in the data set with HCC827 stood at 1380 nM; in the data set on NCI-H1975, 2020 nM.

For the compound `C=CC(=O)Nc1cccc(Nc2nc(Nc3ccc(N4CCC(N5CCN(C)CC5)CC4)cc3)nc3ccc(Cl)cc23)c1`, the IC50 at 72 h was 1620 nM in data set [1] and 2100 nM in data set [2]. Moreover, the IC50 stood at 25 nM with HCC827 and 28 nM with NCI-H1975.

As for `C=CC(=O)Nc1cccc(Nc2nc(Nc3ccc(N4CCC(N(C)C)CC4)cc3)nc3ccc(Cl)cc23)c1`, the IC50 at 72 h in data set [1] came out at 2020 nM; in data set [2] it was 1830 nM. Further, the IC50 in the data set with HCC827 came to 65 nM; in the data set on NCI-H1975, 174 nM.

With `C=CC(=O)Nc1cccc(Nc2nc(Nc3ccc(N4CCC(N(C)C)CC4)cc3)nc3ccc(F)cc23)c1`, the IC50 at 72 h in data set [1] was 1840 nM; in data set [2], 1260 nM. The IC50 with HCC827 amounted to 56 nM; in the data set with NCI-H1975 it was 165 nM.

As to `C=CC(=O)Nc1cccc(Nc2nc(Nc3ccc(N4CCN(C)CC4)cc3)nc3c(F)cccc23)c1`, the IC50 at 72 h in data set [1] and in data set [2] was > 10000 nM each time. The IC50 in the data set with HCC827 came to 2340 nM; in the data set with NCI-H1975, 5480 nM.

As for `C=CC(=O)Nc1cccc(Nc2nc(Nc3ccc(N4CCN(C)CC4)cc3)nc3c2CCN(C(=O)OCc2ccccc2)C3)c1`, the IC50 at 72 h in data set [1] and in data set [2] was > 10000 nM each time. In addition, the IC50 in the data set with HCC827 and with NCI-H1975 was > 10000 nM each time.

In the case of `C=CC(=O)Nc1cccc(Nc2nc(Nc3ccc(N4CCC(N5CCOCC5)CC4)cc3OC)nc3ccc(F)cc23)c1`, the IC50 at 72 h in data set [1] and in data set [2] was > 10000 nM in each case. Moreover, the IC50 in the data set on HCC827 came out at 3930 nM; in the data set with NCI-H1975, 4620 nM.

Regarding `C=CC(=O)Nc1cccc(Nc2nc(Nc3ccc(N4CCC(N5CCN(C)CC5)CC4)cc3)nc3ccc(F)cc23)c1`, the IC50 at 72 h in data set [1] was determined as 1680 nM; in data set [2] it was 1520 nM. For the same compound, the IC50 in the data set on HCC827 was 18 nM; in the data set on NCI-H1975 it was 24 nM.

Consider `C=CC(=O)Nc1cccc(Nc2nc(Nc3ccc(N4CCN(C)CC4)cc3)nc3c(Cl)cccc23)c1`, for which the IC50 at 72 h in data set [1] and in data set [2] was > 10000 nM in each case. The IC50 with HCC827 stood at 4640 nM; in the data set with NCI-H1975 it was 5630 nM.

As to `CC(C)=CC(=O)Nc1cccc(Nc2nc(Nc3ccc(N4CCN(C)CC4)cc3)nc3ccc(Cl)cc23)c1`, the IC50 at 72 h amounted to 3290 nM in data set [1] and 5330 nM in data set [2]. For the same compound, the results for the IC50 in the data set with HCC827 and in the data set with NCI-H1975 were 884 nM and 874 nM, respectively.

`C=CC(=O)Nc1cccc(Nc2nc(Nc3ccc(N4CCN(C)CC4)cc3)nc3ccc([N+](=O)[O-])cc23)c1`: the concentration for half-maximal inhibition (IC50) at 72 h in data set [1] and in data set [2] was > 10000 nM throughout. The IC50 came out at 3700 nM in the data set with HCC827 and 6360 nM in the data set on NCI-H1975.

The values above are taken from ChEMBL document CHEMBL5380860, “Design, Synthesis, and Antitumor Activity of Potent and Selective EGFR L858R/T790M Inhibitors and Identification of a Combination Therapy to Overcome Acquired Resistance in Models of Non-small-cell Lung Cancer” (J Med Chem, 2023).
